# Measurements taken from PMC8587999, “Assessment of the Activity of Decoquinate and Its Quinoline-O-Carbamate Derivatives against Toxoplasma gondii In Vitro and in Pregnant Mice Infected with T. gondii Oocysts” (Molecules, 2021).
# Where two headings read alike, the source gives them in different places.
# Columns and labels:
# [1] = system: T. gondii β-gal tachyzoites; experiment: IC50 determination with T. gondii β-gal tachyzoites grown in HFF monolayers; format: cell-based, Toxoplasma gondii; details: for Selectivity Index: HFF vs T. gondii, compound applied prior to / concomitantly with infection; for IC50: Toxoplasma gondii, Tg-β-gal in HFF, [upper, lower limit of 95% CI], read-out: IC50 T. gondii (nM) [LS
# Experimental: The efficacy of DCQ in vitro was determined using T. gondii β-gal constitutively expressing β-galactosidase grown in HFF monolayers. […] The low IC50 values and the low degree of cytotoxicity against HFF host cells in vitro encouraged us to examine the efficacy of oral treatment of CD1 mice infected with T. gondii oocysts with DCQ at 10 mg/kg/day for 5 days.
# Due to the negative effects of treatment with DCQ, we investigated the efficacy in vitro of the three DCQ derivatives RMB054, RMB055 and RMB060 (Figure 1) in comparison to DCQ. Different concentrations of DCQ and the derivatives in DMSO were added to HFF either concomitantly with infection of T. gondii-β-gal tachyzoites, or 3 h after infection. […] The corresponding dose-response curves are shown in Supplementary Materials Figure S1. The viability of uninfected HFF was not impaired by the compounds up to concentrations of 5 µM (DCQ and RMB054) or 10 µM (RMB055, RMB060) (Table 1).
# (§1) HFF cytotoxicity assessments and IC50 determinations using cultures of Tg-β-gal tachyzoites grown in HFF were carried out as described previously. IC50 values were calculated with the logit-log-transformation of the relative growth and subsequent regression analysis was done with the corresponding software tool contained in Microsoft Excel software package (Microsoft, Seattle, WA). For the long-term treatments, HFF grown in T25 culture flasks were infected with 5 × 10^5 TgMe49 tachyzoites, and after 4.5 h 0.5 μM DCQ, RMB054 or RMB060 were added. Infected cultures treated with the highest corresponding concentration of DMSO (0.5%) served as controls. Prolonged treatments for up to 24 days were carried out, with the addition of fresh medium containing the respective drug every 3–4 days. Cultures were inspected by light microscopy on a daily basis. On days 3, 6, 9, 13, 16, 20 and 24, the compound-containing medium was removed, and parasites were maintained without drug pressure until host cell lysis (plaque formation) was evident.
# [2] = system: human foreskin fibroblasts (HFF); experiment: HFF cytotoxicity assessment; format: cell-based; details: for IC50: Homo sapiens, Fibroblast, uninfected HFF, no decline in viability over the concentration range
# Experimental: as §1
# [3] = system: BAG1 (bradyzoite antigen 1) expression in T. gondii Me49; experiment: Immunofluorescence staining for BAG1 expression in TgMe49-infected HFF; format: cell-based, Toxoplasma gondii; details: treatment for 48 h
# Experimental: For immunofluorescence microscopy, 4 × 10^4 HFF were grown on glass coverslips for 24 h to form a sub-confluent monolayer and were exposed to 1.2 × 10^5 TgMe49 tachyzoites during 4 h at 37 °C and 5% CO2. The medium was replaced and supplemented with 20 nM DCQ and RMB060, or medium containing DMSO as control. Cultures infected with TgPgSp1 (low passage number) served as positive control for BAG1 (bradyzoite antigen 1) expression. Infected cells were cultured for 16 h, 24 h, and 48 h and fixed and labelled for immunofluorescence staining as described previously. A polyclonal rabbit anti-BAG1 antiserum was applied at 1:200 dilution, followed by a goat-anti-rabbit fluorescein-isothiocyanate conjugate (1:300), the monoclonal mouse anti-TgSAG1 antibody was diluted (1:100), followed by goat anti-mouse conjugated to tetramethylrhodamine-isothiocyanate at 1:300. Subsequently, samples were mounted in H-1200 Vectashield mounting medium (Vector Laboratories, Burlingame, CA, USA) containing 4,6-diamidino-2-phenylindole and were viewed on a Nikon E80i fluorescence microscope (Tokyo, Japan). Processing of images was performed using Openlab 5.5.2 (Improvision, PerkinElmer, Waltham, MA, USA) and the ImageJ software, version 1.53 m.
# [4] = compound added 3 h post-infection, LI] Compound Added 3 h Post-infection
# [5] = compound added prior to / concomitantly with infection, LI] Compound Added Prior to Infection
Structure (SMILES),Selectivity Index [1],"IC50 [1, 4] [nM]","IC50 [1, 5] [nM]",Concentration up to which viability of uninfected HFF was not impaired [2] [µM],IC50 [2] [nM],Expression of the bradyzoite marker BAG1 [3]
CCCCCCCCCCOc1cc2c(OC(=O)N3CCN(CC)C(=O)C3=O)c(C(=O)OCCOC)cnc2cc1OCC [RMB054],>435,11.4,11.5,5,> 5000,not clearly detectable
CCCCCCCCCCOc1cc2c(OC(=O)N3CCN(S(C)(=O)=O)C3=O)c(C(=O)OCCOC)cnc2cc1OCC [RMB055],>50,227,200,10,> 10000,–
